Data taken from patent US11051515B2, “3-acyl-benzamides and their use as herbicides” (Bayer Aktiengesellschaft, priority 2017, dated 2021).

Legend:
ALOMY = test: Pre-emergence action against ALOMY; type: in vivo, Alopecurus myosuroides; details: Alopecurus myosuroides, 504 h; dosage 320 g/ha; pre-emergence; scored visually after 3 weeks vs untreated controls; 100% = plants have died, 0% = like control plants; read-out: Pre-emergence action against ALOMY (herbicidal activity in percent)
Summary of the method: (§1)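 Seeds sown in sandy loam in wood-fiber pots and covered with soil. Greenhouse growth; visual damage scored after 3 weeks versus untreated controls (100% = dead, 0% = like control).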

AVEFA = test: Pre-emergence action against AVEFA; type: in vivo, Avena fatua; details: dosage 320 g/ha, scored visually after 3 weeks vs untreated controls
Summary of the method: as §1

CYPES [1] = test: Pre-emergence action against CYPES; type: in vivo, Cyperus esculentus; details: Cyperus esculentus, 504 h; pre-emergence, dosage 320 g/ha, scored visually after 3 weeks vs untreated controls; read-out: Pre-emergence action against CYPES (herbicidal activity)
Summary of the method: as §1

ECHCG [2] = test: Pre-emergence action against ECHCG; type: in vivo, Echinochloa crus-galli; details: pre-emergence, dosage 320 g/ha, scored visually after 3 weeks vs untreated controls
Summary of the method: as §1

LOLMU = test: Pre-emergence action against LOLMU; type: in vivo, Lolium multiflorum; details: Lolium multiflorum, 504 h, dosage 320 g/ha, scored visually after 3 weeks vs untreated controls, read-out: Pre-emergence action against LOLMU (herbicidal activity)
Excerpt: (§2) Seeds of monocotyledonous and dicotyledonous weed plants and crop plants are laid out in sandy loam soil in wood-fiber pots and covered with soil. The compounds of the invention, formulated in the form of wettable powders (WP) or as emulsion concentrates (EC), are then applied to the surface of the covering soil in the form of an aqueous suspension or emulsion at a water application rate equating to […], with addition of 0.2% wetting agent. After the treatment, the pots are placed in a greenhouse and kept under good growth conditions for the trial plants. The damage to the test plants is scored visually after a test period of 3 weeks by comparison with untreated controls (herbicidal activity in percent (%): 100% activity=the plants have died, 0% activity=like control plants).

SETVI [3] = test: Pre-emergence action against SETVI; type: in vivo, Setaria viridis; details: Setaria viridis, 504 h; pre-emergence, dosage 320 g/ha, scored visually after 3 weeks vs untreated controls; read-out: SETVI (Table B8, pre-emergence herbicidal activity)
Summary of the method: as §1

ABUTH [4] = test: Pre-emergence action against ABUTH; type: in vivo, Abutilon theophrasti; details: pre-emergence, dosage 320 g/ha, scored visually after 3 weeks vs untreated controls
Summary of the method: as §1

AMARE [5] = test: Pre-emergence action against AMARE; type: in vivo, Amaranthus retroflexus; details: pre-emergence, dosage 320 g/ha, scored visually after 3 weeks vs untreated controls
Summary of the method: as §1

MATIN [6] = test: Pre-emergence action against MATIN; type: in vivo, Matricaria inodora; details: Dosage 320 g/ha, pre-emergence
Summary of the method: as §1

POLCO [7] = test: Pre-emergence action against POLCO; type: in vivo, Polygonum convolvulus; details: Fallopia convolvulus, 504 h; Dosage 320 g/ha, pre-emergence
Summary of the method: as §1

STEME [8] = test: Pre-emergence action against STEME; type: in vivo, Stellaria media; details: Dosage 320 g/ha, pre-emergence
Summary of the method: as §1

VIOTR [9] = test: Pre-emergence action against VIOTR; type: in vivo, Viola tricolor; details: Dosage 320 g/ha, pre-emergence
Summary of the method: as §1

VERPE [10] = test: Pre-emergence action against VERPE; type: in vivo, Veronica persica; details: Dosage 320 g/ha, pre-emergence
Summary of the method: as §1

CYPES [11] = test: Post-emergence action against CYPES; type: in vivo, Cyperus esculentus; details: Cyperus esculentus, 504 h; post-emergence, dosage 80 g/ha, visual assessment about 3 weeks after treatment vs untreated controls; read-out: Post-emergence action against CYPES (herbicidal action in percent)
Summary of the method: (§3)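 Weeds grown in sandy loam in greenhouse, treated at one-leaf stage (2–3 weeks after sowing) with WP or EC formulations sprayed as aqueous suspension/emulsion at 600 to […] water with 0.2% wetting agent. Visual rating after about 3 weeks versus untreated controls, as % herbicidal action (100% = plants dead, 0% = like control).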

ECHCG [12] = test: Post-emergence action against ECHCG; type: in vivo, Echinochloa crus-galli; details: Echinochloa crus-galli, 504 h; post-emergence, dosage 80 g/ha, visual assessment about 3 weeks after treatment vs untreated controls; read-out: Post-emergence action against ECHCG (herbicidal action in percent)
Summary of the method: as §3

SETVI [13] = test: Post-emergence action against SETVI; type: in vivo, Setaria viridis; details: Setaria viridis, 504 h; post-emergence, dosage 80 g/ha, visual assessment about 3 weeks after treatment vs untreated controls; read-out: Post-emergence action against SETVI (herbicidal action in percent)
Summary of the method: as §3

ABUTH [14] = test: Post-emergence action against ABUTH; type: in vivo, Abutilon theophrasti; details: post-emergence, dosage 80 g/ha, visual assessment about 3 weeks after treatment vs untreated controls
Summary of the method: as §3

AMARE [15] = test: Post-emergence action against AMARE; type: in vivo, Amaranthus retroflexus; details: post-emergence, dosage 80 g/ha, visual assessment about 3 weeks after treatment vs untreated controls
Summary of the method: as §3

MATIN [16] = test: Post-emergence action against MATIN; type: in vivo, Matricaria inodora; details: Tripleurospermum inodorum, 504 h; post-emergence, dosage 80 g/ha, visual assessment about 3 weeks after treatment vs untreated controls; read-out: Post-emergence action against MATIN (herbicidal action in percent)
Summary of the method: as §3

PHBPU = test: Post-emergence action against PHBPU; type: in vivo, Pharbitis purpurea; details: post-emergence, dosage 80 g/ha
Summary of the method: as §3

POLCO [17] = test: Post-emergence action against POLCO; type: in vivo, Polygonum convolvulus; details: Fallopia convolvulus, 504 h; post-emergence, dosage 80 g/ha
Summary of the method: as §3

STEME [18] = test: Post-emergence action against STEME; type: in vivo, Stellaria media; details: post-emergence, dosage 80 g/ha
Summary of the method: as §3

VIOTR [19] = test: Post-emergence action against VIOTR; type: in vivo, Viola tricolor; details: Viola tricolor, 504 h; post-emergence, dosage 80 g/ha
Summary of the method: as §3

VERPE [20] = test: Post-emergence action against VERPE; type: in vivo, Veronica persica; details: Veronica persica, 504 h, dosage 80 g/ha
Summary of the method: as §3

DIGSA = test: Pre-emergence action against DIGSA; type: in vivo, Digitaria sanguinalis; details: dosage 320 g/ha, scored visually after 3 weeks vs untreated controls
Excerpt: as §2

LOLRI = test: Pre-emergence action against LOLRI; type: in vivo, Lolium rigidum; details: dosage 320 g/ha, scored visually after 3 weeks vs untreated controls
Summary of the method: as §1

Work on `COc1c(C(=O)Nc2nnnn2C)ccc(C(F)(F)F)c1C(C)=O` [1-48] yielded a pest or weed control at 320 g/ha (ALOMY) of 90%, a pest or weed control at 320 g/ha (AVEFA; Avena fatua, 504 h, read-out: Pre-emergence action against AVEFA (herbicidal activity)) of 90% and a pest or weed control at 320 g/ha (CYPES [1]) of 90%. For the same compound, the pest or weed control at 320 g/ha (ECHCG [2]; Echinochloa crus-galli, 504 h, read-out: Pre-emergence action against ECHCG (herbicidal activity)) was 100%, the pest or weed control at 320 g/ha (LOLMU) was 80% and the pest or weed control at 320 g/ha (SETVI [3]) was 100%. The pest or weed control at 320 g/ha (ABUTH [4]; Abutilon theophrasti, 504 h, read-out: Pre-emergence action against ABUTH (herbicidal activity)) was 100%, the pest or weed control at 320 g/ha (AMARE [5]; Amaranthus retroflexus, 504 h, read-out: Pre-emergence action against AMARE (herbicidal activity)) was 100% and the pest or weed control at 320 g/ha (MATIN [6]; Tripleurospermum inodorum, 504 h) was 100%. It also gave a pest or weed control at 320 g/ha (POLCO [7]) of 90%, a pest or weed control at 320 g/ha (STEME [8]; Stellaria media, 504 h) of 90% and a pest or weed control at 320 g/ha (VIOTR [9]; Viola tricolor, 504 h) of 100%. For the same compound, the pest or weed control at 320 g/ha (VERPE [10]; Veronica persica, 504 h) was 100%, the pest or weed control at 80 g/ha (CYPES [11]) was 100% and the pest or weed control at 80 g/ha (ECHCG [12]) was 90%. The pest or weed control at 80 g/ha (SETVI [13]) was 80%, the pest or weed control at 80 g/ha (ABUTH [14]; Abutilon theophrasti, 504 h, read-out: Post-emergence action against ABUTH (herbicidal action in percent)) was 100% and the pest or weed control at 80 g/ha (AMARE [15]; Amaranthus retroflexus, 504 h, read-out: Post-emergence action against AMARE (herbicidal action in percent)) was 100%. The pest or weed control at 80 g/ha (MATIN [16]) was 100%, the pest or weed control at 80 g/ha (PHBPU; Ipomoea purpurea, 504 h) was 90% and the pest or weed control at 80 g/ha (POLCO [17]) was 90%. The pest or weed control at 80 g/ha (STEME [18]; Stellaria media, 504 h) was 100%, the pest or weed control at 80 g/ha (VIOTR [19]) was 100% and the pest or weed control at 80 g/ha (VERPE [20]) was 80%.
In the case of `CSc1c(C(=O)Nc2nnnn2C)ccc(C(F)(F)F)c1C(=O)C1CCCC1` [1-285], the “Pre-emergence action against AVEFA (herbicidal activity)” value (AVEFA) is reported as 80%, the “Pre-emergence action against DIGSA (herbicidal activity)” value (DIGSA) is reported as 90% and the “Pre-emergence action against ECHCG (herbicidal activity)” value (ECHCG [2]) is reported as 80%. For the same compound, the “Pre-emergence action against LOLRI (herbicidal activity)” value (LOLRI) was 80%, the “Pre-emergence action against ABUTH (herbicidal activity)” value (ABUTH [4]) was 100% and the “Pre-emergence action against AMARE (herbicidal activity)” value (AMARE [5]) was 100%. The “Pre-emergence action against MATIN” value (MATIN [6]) was 100%, the “Pre-emergence action against STEME” value (STEME [8]) was 100% and the “Pre-emergence action against VIOTR” value (VIOTR [9]) was 100%. The “Pre-emergence action against VERPE” value (VERPE [10]) was 90%, the “Post-emergence action against ABUTH (herbicidal action in percent)” value (ABUTH [14]) was 90% and the “Post-emergence action against AMARE (herbicidal action in percent)” value (AMARE [15]) was 90%. The “Post-emergence action against PHBPU” value (PHBPU) was 80 and the “Post-emergence action against STEME” value (STEME [18]) was 80.
